Measured values reported in patent US3997403A, “Antibiotic G-418 and the production thereof” (Schering Corporation, priority 1975, dated 1976).
≈ marks a conversion by molar mass, not a printed value.

What was measured:
[1] = tested on: Escherichia coli Sc; test: In Vitro Antibacterial Activity (Table IV); format: cell-based; settings: E. coli Sc, Tryptose Phosphate Broth pH 7.2 - 7.5, read-out: MIC (Minimum Inhibitory Concentration)
From the text: (§1) In Table IV and Table V are set forth the in vitro antibacterial spectrum of Antibiotic G-418 against a variety of gram-positive and gram-negative bacteria using standard art recognized methods.
(§2) *Minimum Inhibitory Concentration -- Medium: Tryptose Phosphate Broth pH

[2] = tested on: Klebsiella pneumoniae DA20; test: In Vitro Antibacterial Activity (Table IV); format: cell-based; settings: K. pneumoniae DA20, Tryptose Phosphate Broth pH 7.2 - 7.5, read-out: MIC (Minimum Inhibitory Concentration)
From the text: as §1, §2

[3] = tested on: Pseudomonas aeruginosa VA6; test: In Vitro Antibacterial Activity (Table IV); format: cell-based; settings: P. aeruginosa VA6, Tryptose Phosphate Broth pH 7.2 - 7.5, read-out: MIC (Minimum Inhibitory Concentration)
From the text: as §1, §2

[4] = tested on: Staphylococcus aureus 209P; test: In Vitro Antibacterial Activity (Table IV); format: cell-based; settings: S. aureus 209P, Tryptose Phosphate Broth pH 7.2 - 7.5, read-out: MIC (Minimum Inhibitory Concentration)
From the text: as §1, §2

[5] = tested on: Staphylococcus aureus Ziegler; test: In Vitro Antibacterial Activity (Table IV); format: cell-based; settings: S. aureus Ziegler, Tryptose Phosphate Broth pH 7.2 - 7.5, read-out: MIC (Minimum Inhibitory Concentration)
From the text: as §1, §2

[6] = tested on: Streptococcus sp. C203; test: In Vitro Antibacterial Activity (Table IV); format: cell-based; settings: Tryptose Phosphate Broth pH 7.2 - 7.5, read-out: MIC (Minimum Inhibitory Concentration)
From the text: as §1, §2

[7] = tested on: Bacillus subtilis 6633; test: In Vitro Antibacterial Activity (Table V); format: cell-based; settings: B. subtilis 6633, Mueller-Hinton Broth pH 7.2 - 7.5
From the text: as §1
(§3) *Mueller -- Hinton Broth pH 7.2 - 7.5

[8] = tested on: Escherichia coli 777; test: In Vitro Antibacterial Activity (Table V); format: cell-based; settings: E. coli 777, Mueller-Hinton Broth pH 7.2 - 7.5
From the text: as §1, §3

[9] = tested on: Escherichia coli 887; test: In Vitro Antibacterial Activity (Table V); format: cell-based; settings: E. coli 887, Mueller-Hinton Broth pH 7.2 - 7.5
From the text: as §1, §3

[10] = tested on: Proteus mirabilis 12453; test: In Vitro Antibacterial Activity (Table V); format: cell-based; settings: Mueller-Hinton Broth pH 7.2 - 7.5
From the text: as §1, §3

[11] = tested on: Proteus morganii 8019; test: In Vitro Antibacterial Activity (Table V); format: cell-based; settings: Morganella morganii, Mueller-Hinton Broth pH 7.2 - 7.5
From the text: as §1, §3

[12] = tested on: Proteus rettgeri 9250; test: In Vitro Antibacterial Activity (Table V); format: cell-based; settings: Providencia rettgeri, Mueller-Hinton Broth pH 7.2 - 7.5
From the text: as §1, §3

[13] = tested on: Pseudomonas aeruginosa 1236; test: In Vitro Antibacterial Activity (Table V); format: cell-based; settings: P. aeruginosa 1236, Mueller-Hinton Broth pH 7.2 - 7.5
From the text: as §1, §3

[14] = tested on: Pseudomonas aeruginosa 1262; test: In Vitro Antibacterial Activity (Table V); format: cell-based; settings: P. aeruginosa 1262, Mueller-Hinton Broth pH 7.2 - 7.5
From the text: as §1, §3

[15] = tested on: Pseudomonas aeruginosa 20; test: In Vitro Antibacterial Activity (Table V); format: cell-based; settings: P. aeruginosa 20, Mueller-Hinton Broth pH 7.2 - 7.5
From the text: as §1, §3

[16] = tested on: Pseudomonas aeruginosa 83; test: In Vitro Antibacterial Activity (Table V); format: cell-based; settings: P. aeruginosa 83, Mueller-Hinton Broth pH 7.2 - 7.5
From the text: as §1, §3

[17] = tested on: Staphylococcus aureus 1257; test: In Vitro Antibacterial Activity (Table V); format: cell-based; settings: S. aureus 1257, Mueller-Hinton Broth pH 7.2 - 7.5
From the text: as §1, §3

[18] = tested on: Staphylococcus aureus 12; test: In Vitro Antibacterial Activity (Table V); format: cell-based; settings: S. aureus 12, Mueller-Hinton Broth pH 7.2 - 7.5
From the text: as §1, §3

[19] = tested on: Staphylococcus aureus 23; test: In Vitro Antibacterial Activity (Table V); format: cell-based; settings: S. aureus 23, Mueller-Hinton Broth pH 7.2 - 7.5
From the text: as §1, §3

[20] = tested on: Staphylococcus aureus 26; test: In Vitro Antibacterial Activity (Table V); format: cell-based; settings: S. aureus 26, Mueller-Hinton Broth pH 7.2 - 7.5
From the text: as §1, §3

[21] = tested on: Staphylococcus aureus 32; test: In Vitro Antibacterial Activity (Table V); format: cell-based; settings: S. aureus 32, Mueller-Hinton Broth pH 7.2 - 7.5
From the text: as §1, §3

[22] = tested on: Staphylococcus aureus 6; test: In Vitro Antibacterial Activity (Table V); format: cell-based; settings: S. aureus 6, Mueller-Hinton Broth pH 7.2 - 7.5
From the text: as §1, §3

[23] = tested on: Staphylococcus aureus Sm 1; test: In Vitro Antibacterial Activity (Table V); format: cell-based; settings: SM1, S. aureus Sm 1, Mueller-Hinton Broth pH 7.2 - 7.5
From the text: as §1, §3

[24] = tested on: Streptococcus sp. 16245; test: In Vitro Antibacterial Activity (Table V); format: cell-based; settings: Mueller-Hinton Broth pH 7.2 - 7.5
From the text: as §1, §3

[25] = tested on: Streptococcus sp. 27; test: In Vitro Antibacterial Activity (Table V); format: cell-based; settings: Mueller-Hinton Broth pH 7.2 - 7.5
From the text: as §1, §3

[26] = tested on: Streptococcus sp. 3045; test: In Vitro Antibacterial Activity (Table V); format: cell-based; settings: Mueller-Hinton Broth pH 7.2 - 7.5
From the text: as §1, §3

[27] = tested on: Streptococcus sp. 30; test: In Vitro Antibacterial Activity (Table V); format: cell-based; settings: Mueller-Hinton Broth pH 7.2 - 7.5
From the text: as §1, §3

[28] = tested on: Streptococcus sp. 6589; test: In Vitro Antibacterial Activity (Table V); format: cell-based; settings: Mueller-Hinton Broth pH 7.2 - 7.5
From the text: as §1, §3

[29] = tested on: Eschericia coli Sc.; test: In vivo protective activity in infected mice; set-up: species or system Carworth Farms CF-1 mice; settings: S.C., dosed 1 hour after i.p. lethal infection, survival at 48 hours
Method: (§4) In Table VI is set forth in vivo antibacterial data obtained with Antibiotic G-418. The host animals used to obtain the data were Carworth Farms CF-1 mice weighing about 18-20 g. In vivo protection (PD50) is determined by injecting the mice (in groups of seven) intraperitoneally with a lethal dose of pathogenic bacteria. The mice are dosed with Antibiotic G-418 1 hour later. The non-protected controls die in 18-24 hours whereas the survivors are alive 48 hours after infection when the test is terminated. The data is analyzed by standard probit procedures to determine PD50 values with 95% confidence limits.

[30] = tested on: Pseudomonas aeruginosa No. 1; test: In vivo protective activity in infected mice; set-up: species or system Carworth Farms CF-1 mice; settings: S.C., dosed 1 hour after i.p. lethal infection, survival at 48 hours
Method: as §4

[31] = tested on: Staphylococcus aureus Gray; test: In vivo protective activity in infected mice; set-up: species or system Carworth Farms CF-1 mice; settings: dosed 1 hour after i.p. lethal infection, survival at 48 hours
Method: as §4

[32] = tested on: Staphylococcus aureus St. M No. 1; test: In vivo protective activity in infected mice; set-up: species or system Carworth Farms CF-1 mice; settings: S.C., dosed 1 hour after i.p. lethal infection, survival at 48 hours
Method: as §4

[33] = Acute Toxicity; set-up: species or system Carworth Farms CF-1 mice; settings: mouse, in vivo, iv, I.V.

Q: With `CN[C@@H]1[C@@H](O)[C@@H](O[C@@H]2[C@@H](O)[C@H](O[C@H]3O[C@H]([C@@H](C)O)[C@@H](O)[C@H](O)[C@H]3N)[C@@H](N)C[C@H]2N)OC[C@]1(C)O` [Antibiotic G-418] as the compound, how does the MIC [1] read?
A: Its MIC is 3 µg/mL (≈ 6.04 µM).

Q: And the MIC [2]?
A: Its MIC is 3 µg/mL (≈ 6.04 µM).

Q: What about the MIC [3] of the same compound?
A: Its MIC is 3 µg/mL (≈ 6.04 µM).

Q: What about the MIC [4] of the same compound?
A: Its MIC is 0.8 µg/mL (≈ 1.61 µM).

Q: And the MIC [5]?
A: The MIC was 0.8 µg/mL (≈ 1.61 µM).

Q: And the MIC [6]?
A: Its MIC is 17.5 µg/mL (≈ 35.2 µM).

Q: And the MIC [7]?
A: Its MIC is 3 µg/mL (≈ 6.04 µM).

Q: What about the MIC [8] of the same compound?
A: The MIC was 3 µg/mL (≈ 6.04 µM).

Q: And the MIC [9]?
A: The MIC was 3 µg/mL (≈ 6.04 µM).

Q: What about the MIC [10] of the same compound?
A: Its MIC is 7.5 µg/mL (≈ 15.1 µM).

Q: What about the MIC [11] of the same compound?
A: Its MIC is 0.8 µg/mL (≈ 1.61 µM).

Q: And the MIC [12]?
A: Its MIC is 0.3 µg/mL (≈ 0.604 µM).

Q: What about the MIC [13] of the same compound?
A: Its MIC is 17.5 µg/mL (≈ 35.2 µM).

Q: And the MIC [14]?
A: The MIC was 17.5 µg/mL (≈ 35.2 µM).

Q: What about the MIC [15] of the same compound?
A: The MIC was 3 µg/mL (≈ 6.04 µM).

Q: And the MIC [16]?
A: The MIC was 7.5 µg/mL (≈ 15.1 µM).

Q: What about the MIC [17] of the same compound?
A: Its MIC is 0.3 µg/mL (≈ 0.604 µM).

Q: And the MIC [18]?
A: The MIC was 3 µg/mL (≈ 6.04 µM).

Q: And the MIC [19]?
A: The MIC was 0.3 µg/mL (≈ 0.604 µM).

Q: What about the MIC [20] of the same compound?
A: Its MIC is 3 µg/mL (≈ 6.04 µM).

Q: And the MIC [21]?
A: The MIC was 7.5 µg/mL (≈ 15.1 µM).

Q: And the MIC [22]?
A: The MIC was 0.3 µg/mL (≈ 0.604 µM).

Q: And the MIC [23]?
A: Its MIC is 0.3 µg/mL (≈ 0.604 µM).

Q: What about the MIC [24] of the same compound?
A: Its MIC is 7.5 µg/mL (≈ 15.1 µM).

Q: What about the MIC [25] of the same compound?
A: Its MIC is 7.5 µg/mL (≈ 15.1 µM).

Q: What about the MIC [26] of the same compound?
A: The MIC was 7.5 µg/mL (≈ 15.1 µM).

Q: And the MIC [27]?
A: Its MIC is 7.5 µg/mL (≈ 15.1 µM).

Q: What about the MIC [28] of the same compound?
A: Its MIC is 7.5 µg/mL (≈ 15.1 µM).

Q: And the PD50 [29]?
A: Its PD50 is 1.5 mg/kg.

Q: And the PD50 [30]?
A: The PD50 was 5.0 mg/kg.

Q: And the PD50 ([31]; Oral)?
A: The PD50 was 40 mg/kg.

Q: And the PD50 ([31]; S.C.)?
A: The PD50 was 2.5 mg/kg.

Q: What about the PD50 [32] of the same compound?
A: Its PD50 is 3.0 mg/kg.

Q: What about the LD50 [33] of the same compound?
A: The LD50 was 140 mg/kg.
